What all share (format): cell-based
For test [1], the system named is human malignant melanoma A375.S2 cells. The test can be described thus: Cell viability, trypan blue exclusion (A375.S2). The settings on record: 24 h, FIG. 1. Here is the method: (§1) Human malignant melanoma A375.S2 cell line was obtained from the American Type Culture Collection (ATCC, USA). A375.S2 cells were grown in minimum essential medium supplemented with 10% fetal bovine serum, 100 U/mL of penicillin, and 100 μg/mL of streptomycin (Life Technologies, USA). PC-3 cells (hormone-independent human prostate cancer cells) were cultured in Ham's F12K medium supplemented with 7% fetal bovine serum, 100 U/mL of penicillin, and 100 μg/mL of streptomycin (Life Technologies, USA). Cells were cultured at 37° C. in a 5% CO2 incubator.
(§2) Seeding cells (2.5×10^5 cells/well) in 6-well plates and incubated with different concentrations of M1 (10, 20 and 40 μM), cisplatin (50 μM) or vehicle for 24 h. Cells were detached by trypsinization and the cell numbers were counted by trypan blue exclusion method.
To investigates the effect of M1 on the inhibition of human malignant melanoma cell growth, A375 cells were cultured with various concentration of M1.

Test [2] has the same test system. Briefly: Colony formation assay (A375.S2). The settings on record: M1 10, 20 and 40 μM, 10 days; FIG. 2. As to the method: as §1
(§3) Plate 500 cells per well into 6-well plates and incubated with different M1 concentrations (10, 20, and 40 μM) or vehicle for 10 days. Cells were fixed in 4% paraformaldehyde after washing with cold PBS twice, and stained with 0.5% crystal violet 10 min at room temperature.
To investigates the effect of M1 on the reduction of colony formation ability of melanoma cells, A375. S2 cells were subjected to colony formation assay with various concentration of M1.

The test system is the same in test [3]. Briefly: Wound healing assay (A375.S2). To be noted: M1 20 or 40 μM, 24 h, vs control; FIG. 3. As to the method: as §1
(§4) Cells were seeded at 6×10^5 into 6-well plates and incubated for 24 h. Then used a sterile 200-μl pipette tip to create a straight gap of constant width, and each well was washed with sterile PBS. Next, the cells were incubated with various concentrations of M1 (10, 20, and 40 μM) or vehicle. The cells were photographed at 0 and 24 h under a microscope at 100× magnification.
To investigates the effect of M1 on the inhibition of migration ability of melanoma cells, A375.S2 cells were subjected to the wound healing assay with various concentration of M1.

Test [4] shares this test system. The test can be described thus: Annexin V/PI apoptosis flow cytometry (A375.S2). The settings on record: 24 h, FIG. 4. Here is the method:
as §1
A375.S2 cells were seeded at 2.5×10^5 into 6-well plates, and incubated with M1 (40 μM), cisplatin (50 μM) or vehicle for 24 h. To perform apoptosis using an Annexin V-FITC/PI apoptosis detection kit (BD Biosciences, USA) according to the manufacturer's instructions, and then analyzed by flow cytometry (BD Biosciences).
(§5) To further investigate mechanism of action of M1, we used Annexin V/PI double staining by flow cytometry and crucial protein expression by Western blot analysis to measured targeting hallmarks of apoptosis.

Test [5] has the same test system. The test can be described thus: Western blot of apoptosis-related proteins (A375.S2). The settings on record: A375.S2, M1 10, 20 and 40 μM, 24 h, FIGS. 5A, 5B. As to the method: as §1
(§6) Plate 4×10^5 cells per well into 6-cm dish, and incubated with different concentrations of M1 (10, 20 and 40 μM), cisplatin (50 μM) or vehicle for 24 h. The cells were exacted by disruption in RIPA buffer (Sigma-Aldrich, Germany) in the presence of protease inhibitor cocktail. Each protein sample was run on a 12% SDS-PAGE gel and transferred to PVDF membrane, which was then incubated for 1 h at room temperature in blocking buffer and then overnight at 4° C. with primary antibodies against caspase-3, caspase-9 (Cell Signaling Technology, USA), Bax, Bcl-2 or β-actin (Santa Cruz, USA). The membrane was incubated for 1 h at room temperature with HRP-conjugated secondary antibodies. The proteins were detected using enhanced chemiluminescence reagent (GE, UK).
as §5

The subject of test [6] is human prostate cancer PC-3 cells. The test can be described thus: Cell viability, trypan blue exclusion (PC-3). The settings on record: M1 10, 20 and 40 μM, 24 h, dose-dependent; FIG. 6. Here is the method:
as §1, §2
Plate human prostatic cancer cell line PC-3 2.5×10^5 per 6-well plates and cultured in Ham's F12K medium supplemented with 7% fetal bovine serum, 100 U/mL of penicillin, and 100 μg/mL of streptomycin (Life Technologies, USA). Cells were cultured overnight at 37° C. in a 5% CO2 incubator, and then treated with different concentrations of M1 (10, 20 and 40 μM) or vehicle for 24 h, and the cell numbers were counted by trypan blue exclusion method. […] The data are expressed as the means±SEM for three separate experiments. *p<0.05, **p<0.01. […]

Test [7] shares this test system. The test can be described thus: Colony formation assay (PC-3). The settings on record: M1 10, 20 and 40 μM, 10 days, dose-dependent, vs vehicle; FIG. 7. As to the method: as §1, §3
Seeding 500 cells per 6-well plates and treated for 10 days with different concentrations of M1 (10, 20, and 40 μM) or vehicle. The cells were fixed in 4% paraformaldehyde for 15 min, after washing with cold PBS twice, and stained with 0.5% crystal violet 10 min at room temperature. […] The data are expressed as the means±SEM for three separate experiments. *p<0.05, ***p<0.005. (One-way ANOVA and subsequent Scheffe's test).

Test [8] has the same test system. The test can be described thus: Wound healing assay (PC-3). To be noted: M1 20 or 40 μM, 24 h, vs vehicle; FIG. 8. As to the method: as §1, §4
Next, we performed whether M1 reduces the migration ability by wound healing assay in PC-3 cells. Cells were seeded at 6×10^5 per 6-well plates in culture medium and were grown overnight at 37° C. in a 5% CO2 incubator. Each well was scratched with sterile 200-μl pipette tip in the cell monolayer, and washed with sterile PBS twice. […] The data are expressed as the means±SEM for three separate experiments. *p<0.05, ***p<0.005. […]

Test [9] shares this test system. The test can be described thus: Annexin V/PI apoptosis flow cytometry (PC-3). The settings on record: M1 40 μM, 24 h, vs vehicle; FIG. 9. Here is the method: as §1
(§7) Furthermore, to investigate mechanisms underlying the apoptosis-inducing activity of M1, we detected Annexin V/PI double staining by flow cytometry and apoptosis related protein expression by Western blot. PC-3 cells were plate 2.5×10^5 per 6-well plates, and incubated with M1 (40 μM) or vehicle for 24 h. The cells were harvested by gently trypsinizing and wash with ice-PBS twice, then stained with Annexin V-FITC/PI apoptosis detection kit (BD Biosciences, USA) according to the manufacturer's instructions and measured using a flow cytometer within 1 hour. […] The data are expressed as the means±SEM for three separate experiments. ***p<0.005. (One-way ANOVA and subsequent Scheffe's test).

Test [10] shares this test system. The test can be described thus: Western blot of apoptosis-related proteins (PC-3). To be noted: PC-3, M1 10, 20 and 40 μM, 24 h, FIGS. 10A, 10B. Here is the method:
as §1, §6, §7

From US20220218729A1, “USE OF GINSENOSIDE M1 FOR TREATING CANCER” (priority 2019, published 2022) come the findings set out here.

For `CC(C)=CCC[C@](C)(O[C@@H]1OC(CO)[C@@H](O)[C@@H](O)C1O)[C@H]1CC[C@]2(C)C1[C@H](O)CC1[C@@]3(C)CC[C@H](O)C(C)(C)C3CC[C@]12C` (stereo partly drawn) [M1, 20-O-β-D-glucopyranosyl-20(S)-protopanaxadiol], the “cell numbers of A375.S2 cells” value in [1] (M1 10, 20 and 40 μM, vs control) is “decreased the cell numbers”. The “numbers of colonies of A375.S2 cells” value in test [2] was “reduced dose-dependently”. For the same compound, the “cell migration ability of A375.S2 cells” value in test [3] is reported as “markedly decreased the cell migration ability”. Moreover, the “percentage of A375.S2 cells with Annexin V/PI double staining” value in test [4] (M1 40 μM) is reported as “greatly increased the percentage”. Moreover, in test [5] (dose-dependent), the Bcl-2 protein expression result is reported as “decrease”, the pro-caspase-3 protein expression result is “decrease” and the pro-caspase-9 protein expression entry is “decrease”. In test [5], the “levels of caspase-3” value was “significantly increased” and the “levels of caspase-9” value is recorded as “significantly increased”. For the same compound, in test [6], the “cell numbers of PC-3 cells” value is “significantly decrease cell numbers”. Also, the “colony formation ability of PC-3 cells” value in test [7] is recorded as “inhibited the colony formation ability”. Besides, the “cell migration ability of PC-3 cells” value in test [8] is on record as “significantly decreased the cell migration ability”. In addition, the “percentage of PC-3 cells with Annexin V/PI double staining” value in [9] is recorded as “greatly increased the percentage”. Also, in [10] (dose-dependent), the Bax/Bc1-2 ratio result was “increased” and the “protein levels of caspase-9” value was “increased”. Also, in [10], the pro-caspase-3 protein expression entry is “significantly decreased” and the pro-caspase-9 protein expression result is reported as “significantly decreased”.

Take `N.N.[Cl][Pt][Cl]` [cisplatin, reference compound]: the “cell numbers of A375.S2 cells” value in test [1] (cisplatin 50 μM, positive control) was “decreased the cell numbers”. Further, the “percentage of A375.S2 cells with Annexin V/PI double staining” value in test [4] (cisplatin 50 μM) is on record as “greatly increased the percentage”.
